According to patent publication US12173291B2, “Unnatural base pair compositions and methods of use” (THE SCRIPPS RESEARCH INSTITUTE, priority 2017, dated 2024):

What was measured:
[1] = test system: OneTaq DNA Polymerase; experiment: PCR amplification of long DNAs (overlap assembly PCR); format: biochemical; conditions: presence of dTPT3TP in PCR
Protocol: The UBP knock-in cassette for the arsB locus (FIGS. 7A-7C) was produced through overlapping PCR of a 150-bp dsDNA containing a UBP and the kanamycin resistance gene of pKD13. The 150 bp DNA was produced with a 50-μL PCR using the same reaction solution conditions as above and the following temperature regime (time in mm:ss): [98° C. 02:00|5×(98° C. 00:10|50° C. 00:10|68° C. 04:00)|15×(98° C. 00:10|58° C. 00:10|68° C. 04:00)]. The kanamycin resistance gene amplicon was produced through PCR amplification off pKD13 using Q5 DNA polymerase as per manufacturer recommendations. The amplification of long DNAs (approximately 200 bp or longer) is inhibited by the presence of dTPT3TP. Therefore, the overlap assembly PCR of the UBP containing amplicon and kanamycin resistance gene amplicon was performed on large-scale (2 mL of reaction mixture split into 40 individual 50-μL reactions) with the following solution conditions: UBP containing amplicon (0.02 ng/μL), kanamycin resistance gene amplicon (0.02 ng/μL), primers (1 μM), dTPT3TP (5 μM), dNaMTP (100 μM), dNTPs (200 μM), MgSO4 (1.2 mM), OneTaq DNA Polymerase (0.025 U/μL), and OneTaq Standard Reaction Buffer (1 x). The reactions were subjected to the following temperature regime (time in mm:ss): [98° C. 02:00|5×(98° C. 00:10|50° C. 00:10|68° C. 04:00)|15×(98° C. 00:10|58° C. 00:10|68° C. 04:00)]. […]

[2] = test system: E. coli BL21(DE3) SSO; experiment: Growth of chromosomal UBP integrants with or without dNaMTP and dTPT3TP (doubling time); format: cell-based; conditions: ΔrecA-Opt and Pol II+ΔrecA integrants, dNaMTP and dTPT3TP provided together in media
Protocol: Mid-log phase cells WT-Opt, ΔrecA-Opt, and Pol II^+ΔrecA-Opt SSOs and their corresponding chromosomal UBP integrants (described above) were prepared using the following procedure. Saturated overnight cultures were prepared by inoculation of 2×YT containing chloramphenicol (5 μg/mL), dTPT3TP (37.5 μM), dNaMTP (150 μM), and KPi (50 mM, pH 7) from glycerol stock stabs and overnight growth (approximately 14 h) at 37° C. at 230 RPM. These cells were diluted to 0.03 OD600 in 500 μL 2×YT containing chloramphenicol (5 μg/mL), dTPT3TP (37.5 μM), dNaMTP (150 μM), and KPi (50 mM, pH 7) and grown at 37° C. at 230 RPM. Growth was monitored by OD600. Once cells reached mid-log phase (0.3-0.5 OD600), they were diluted to 0.013 OD600 in 500 μL 2×YT containing chloramphenicol (5 μg/mL), dTPT3TP (37.5 μM), dNaMTP (150 μM), and KPi (50 mM, pH 7) or 2×YT containing chloramphenicol (5 μg/mL) and KPi (50 mM, pH 7) in a 48-well plate and grown at 37° C. at 230 RPM. OD600 was measured every 30 min. This procedure was performed in triplicate for each strain starting from inoculation of overnight cultures.
OD600 data from each experiment was analyzed to obtain a theoretical cell doubling time (FIG. 2B and FIGS. 8A-8B). […]
Where ODi is the OD600 at time (t), OD0 is minimum OD600 value for a given data set, and CGrowth is the growth constant. […] Doubling times (DT) were calculated using the following equation: […]

Row | SMILES | Amplification of long DNAs (approximately 200 bp or longer) [1] | Growth defect of chromosomal UBP integrants [2]
1 | O=P(O)(O)OP(=O)(O)OP(=O)(O)OC[C@H]1O[C@@H](n2ccc3ccsc3c2=S)C[C@@H]1O [dTPT3TP] | inhibited | almost entirely eliminated
2 | COc1cc2ccccc2cc1[C@H]1C[C@H](O)[C@@H](COP(=O)(O)OP(=O)(O)OP(=O)(O)O)O1 [dNaMTP, triphosphate of dNaM] | – | almost entirely eliminated
